# Test results published in US9458089B2, “Phenoxy alkyl diethanolamine and diisopropanolamine compounds for delivering active agents” (EMISPHERE TECHNOLOGIES, INC., priority 2012, dated 2016).
# pIC50: −log10 of the molar value. Counter-ions that a name gives are not always drawn.
# What was measured:
# hERG channels = biological target: T1, hERG channels (Homo sapiens, UniProt Q12809); assay: hERG patch clamp on clone hERG channels in mammalian cells; type: cell-based; details: test article 1 μm, cisapride positive control, read-out: Experimental hERG Activity
# T1 construct: expressed in transfected cells
# Experimental: hERG activity was measured using a patch clamp method on clone hERG channels in mammalian cells. The concentration of test articles was 1 μm and a comparison was made to both a positive (cisapride) and negative (vehicle) control.
# T1 sequence (Q12809 whole entry): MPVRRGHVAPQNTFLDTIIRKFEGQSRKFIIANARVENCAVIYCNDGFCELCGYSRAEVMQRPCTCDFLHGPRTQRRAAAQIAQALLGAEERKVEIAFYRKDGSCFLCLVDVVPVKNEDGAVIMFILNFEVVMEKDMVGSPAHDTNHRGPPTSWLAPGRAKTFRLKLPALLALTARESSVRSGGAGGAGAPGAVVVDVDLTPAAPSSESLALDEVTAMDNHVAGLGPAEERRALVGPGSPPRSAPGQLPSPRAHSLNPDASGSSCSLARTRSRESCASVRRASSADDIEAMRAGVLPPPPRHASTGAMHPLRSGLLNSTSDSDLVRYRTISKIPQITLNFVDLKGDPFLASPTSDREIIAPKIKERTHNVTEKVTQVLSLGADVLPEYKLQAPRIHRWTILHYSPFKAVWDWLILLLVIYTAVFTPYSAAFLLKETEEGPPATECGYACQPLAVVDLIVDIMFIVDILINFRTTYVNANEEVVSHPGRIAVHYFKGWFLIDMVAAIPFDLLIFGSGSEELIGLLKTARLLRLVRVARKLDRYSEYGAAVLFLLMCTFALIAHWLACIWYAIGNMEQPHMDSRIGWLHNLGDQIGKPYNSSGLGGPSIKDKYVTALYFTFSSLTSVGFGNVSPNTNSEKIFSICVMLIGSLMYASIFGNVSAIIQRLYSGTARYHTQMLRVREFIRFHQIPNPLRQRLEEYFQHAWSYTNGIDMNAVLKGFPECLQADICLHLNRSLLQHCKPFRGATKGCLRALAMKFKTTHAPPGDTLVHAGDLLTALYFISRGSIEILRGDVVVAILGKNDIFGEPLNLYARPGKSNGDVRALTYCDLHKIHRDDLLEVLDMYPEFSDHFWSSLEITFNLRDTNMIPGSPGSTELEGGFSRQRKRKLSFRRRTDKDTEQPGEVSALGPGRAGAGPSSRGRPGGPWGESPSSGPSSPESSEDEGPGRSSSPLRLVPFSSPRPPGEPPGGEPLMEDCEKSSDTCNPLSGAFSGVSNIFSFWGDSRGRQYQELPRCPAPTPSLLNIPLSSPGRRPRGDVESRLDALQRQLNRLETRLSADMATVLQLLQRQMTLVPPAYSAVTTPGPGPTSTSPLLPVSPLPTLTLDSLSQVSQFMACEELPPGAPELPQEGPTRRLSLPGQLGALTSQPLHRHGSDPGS
melting point [°C],Structure (SMILES),pIC50 (hERG channels)
–,Cc1ccc(C)c(OCCCCCCN(CCO)CCO)c1,> 5.70
–,Cc1ccc(C)c(OCCCCCCCN2CCOCC2)c1,> 5.70
–,Cc1ccc(C)c(OCCCCCCCN(CCO)CCO)c1,> 5.70
–,OCCN(CCO)CCCCCCCCOc1ccccc1O,5.30 to 5.70
83 to 86,"Cc1ccc(F)c(OCCCCN(CCO)CCO)c1 (as salt: hydrochloride) [Compound 2-FPBD, 4-(2-fluoro-5-methylphenoxy)butyldiethanolamine]",–
95 to 97,"OCCN(CCO)CCCCCCOc1ccccc1O (as salt: hydrochloride) [Compound 2-HPHD, 6-(2-hydroxyphenoxyl)hexyldiethanolamine]",–
